Test results: patent publication US8673969B2, “Substituted 4-β-acrylamidopodophyllotoxin congeners as antitumour antibiotics and the process for preparation thereof” (Council of Scientific & Industrial Research, priority 2010, dated 2014)
Like-named read-outs stand apart in the source and are kept apart here.

What was measured:
Hop62 = assay: SRB assay, lung cancer cell line Hop62; format: cell-based; conditions: Homo sapiens, read-out: In vitro anticancer activity GI50, Lung Hop62
Description: (§1) Single cell suspension of the tumour cells grown in tissue culture were made, cells counted and cell count adjusted to 1×10^5 to 5×10^5 cells/ml. Ninety six (96) well plates were seeded with this cell suspension, each well receiving 100 μl of it. The plate was then be incubated at 37° C. temperature in CO2 incubator for 24 hours. Drugs were added at concentrations after 24-hour incubation followed by further incubation for 48 hours. Experiment was terminated by gently layering the cells in the wells with 30% TCA and plates were kept in refrigerator for 1 hour following which they were washed thoroughly with tap water, dried attained with 0.4% SRB in 1% acetic aid and finally, the bound SRB eluted with 10 mM tris. Absorbance was read at 540 nm, in the microtitre-plate reader. Optical density of drug-treated cells was compared with that of control cells and cell inhibition was calculated as percent values. Each compound was tested at 10, 20, 40 and 80 μg/ml in triplicate on human malignant cell lines.

DWD = assay: SRB assay, oral cancer cell line DWD; format: cell-based; conditions: Homo sapiens, read-out: In vitro anticancer activity GI50, Oral DWD
Description: as §1

Zr-75-1 = assay: SRB assay, breast cancer cell line Zr-75-1; format: cell-based; conditions: Homo sapiens, read-out: In vitro anticancer activity GI50, Breast Zr-75-1
Description: as §1

Gurav = assay: SRB assay, oral cancer cell line Gurav; format: cell-based; conditions: Homo sapiens, read-out: In vitro anticancer activity GI50, Oral Gurav
Description: as §1

MCF7 = assay: SRB assay, breast cancer cell line MCF7; format: cell-based; conditions: Homo sapiens, read-out: In vitro anticancer activity GI50, Breast MCF7
Description: as §1

A-549 = assay: SRB assay, lung cancer cell line A-549; format: cell-based; conditions: Homo sapiens, read-out: In vitro anticancer activity GI50, Lung A-549
Description: as §1

Colo205 = assay: SRB assay, colon cancer cell line Colo205; format: cell-based; conditions: Homo sapiens, read-out: In vitro anticancer activity GI50, Colon Colo205
Description: as §1

A-2780 = assay: SRB assay, ovarian cancer cell line A-2780; format: cell-based; conditions: Homo sapiens, read-out: In vitro anticancer activity GI50, Ovarian A-2780
Description: as §1

KB = assay: SRB assay, oral cancer cell line KB; format: cell-based; conditions: Homo sapiens, read-out: In vitro anticancer activity GI50, Oral KB
Description: as §1

[1] = SRB assay, 48 hours drug exposure

Compound | GI50 (Hop62; HOP-62, SRB assay, 48 hours drug exposure) [nM] | GI50 (DWD; [1]) [nM] | GI50 (Zr-75-1; ZR-75-1, SRB assay, 48 hours drug exposure) [nM] | GI50 (Gurav; [1]) [nM] | GI50 (MCF7; MCF7, SRB assay, 48 hours drug exposure) [nM] | GI50 (A-549; A549, SRB assay, 48 hours drug exposure) [nM] | GI50 (Colo205; COLO 205, SRB assay, 48 hours drug exposure) [nM] | GI50 (A-2780; A2780, SRB assay, 48 hours drug exposure) [nM] | GI50 (KB; [1]) [nM] | GI50 (Hop62; HOP-62, 48 h) [nM] | GI50 (A-549; A549, 48 h) [nM] | melting point [°C] | GI50 (Zr-75-1; ZR-75-1, 48 h) [nM] | GI50 (Gurav; 48 h) [nM] | GI50 (DWD; 48 h) [nM] | GI50 (MCF7; MCF7, 48 h) [nM] | GI50 (A-2780; A2780, 48 h) [nM] | GI50 (KB; 48 h) [nM] | GI50 (Colo205; COLO 205, 48 h) [nM]
COc1cccc2c1C(=O)c1c(O)c3c(c(O)c1C2=O)C[C@@](O)(C(=O)CO)C[C@@H]3O[C@H]1C[C@H](N)[C@H](O)[C@H](C)O1 [ADR, adriamycin, reference compound] | 150 | 100 | 110 | < 100 | 130 | < 100 | < 100 | < 100 | 130 | – | – | – | – | – | – | – | – | – | –
COc1cc(/C=C(/C(=O)N[C@@H]2c3cc4c(cc3[C@@H](c3cc(OC)c(OC)c(OC)c3)[C@H]3C(=O)OC[C@@H]32)OCO4)c2cc(OC)c(OC)c(OC)c2)ccc1O [Compound 3a, 4β-(E)-3-(4-hydroxy-3-methoxyphenyl)-2-(3,4,5-trimethoxyphenyl)acrylamidopodophyllotoxin] | – | – | – | – | – | – | – | – | – | 2500 | 2400 | 134 to 137 | – | – | – | – | – | – | –
COc1ccc(/C=C(/C(=O)N[C@@H]2c3cc4c(cc3[C@@H](c3cc(OC)c(OC)c(OC)c3)[C@H]3C(=O)OC[C@@H]32)OCO4)c2cc(OC)c(OC)c(OC)c2)cc1O [Compound 3b, 4β-(E)-3-(3-hydroxy-4-methoxyphenyl)-2-(3,4,5-trimethoxyphenyl)acrylamido podophyllotoxin] | – | – | – | – | – | – | – | – | – | 2900 | 2900 | 145 to 147 | – | – | – | – | – | – | –
COc1cc(/C=C(/C(=O)N[C@@H]2c3cc4c(cc3[C@@H](c3cc(OC)c(OC)c(OC)c3)[C@H]3C(=O)OC[C@@H]32)OCO4)c2cc(OC)c(OC)c(OC)c2)ccc1F [Compound 3c, 4β-(E)-3-(4-fluoro-3-methoxyphenyl)-2-(3,4,5-trimethoxyphenyl)acrylamidopodophyllotoxin] | – | – | – | – | – | – | – | – | – | 2500 | – | 144 to 146 | 2200 | 2400 | – | – | – | – | –
COc1ccc(F)c(/C=C(/C(=O)N[C@@H]2c3cc4c(cc3[C@@H](c3cc(OC)c(OC)c(OC)c3)[C@H]3C(=O)OC[C@@H]32)OCO4)c2cc(OC)c(OC)c(OC)c2)c1 [Compound 3e, 4β-(E)-3-(2-fluoro-5-methoxyphenyl)-2-(3,4,5-trimethoxyphenyl)acrylamidopodophyllotoxin] | – | – | – | – | – | – | – | – | – | – | – | 123 to 126 | 2700 | 2500 | – | – | – | – | –
COc1ccc(/C=C(/C(=O)N[C@@H]2c3cc4c(cc3[C@@H](c3cc(OC)c(OC)c(OC)c3)[C@H]3C(=O)OC[C@@H]32)OCO4)c2cc(OC)c(OC)c(OC)c2)c(F)c1 [Compound 3f, 4β-(E)-3-(2-fluoro-4-methoxyphenyl)-2-(3,4,5-trimethoxyphenyl)acrylamidopodophyllotoxin] | – | – | – | – | – | – | – | – | – | 170 | 2100 | 123 to 125 | 2500 | 180 | 190 | 2400 | 2700 | 2600 | –
COc1cc(/C(=C\c2ccc(O)c([N+](=O)[O-])c2)C(=O)N[C@@H]2c3cc4c(cc3[C@@H](c3cc(OC)c(OC)c(OC)c3)[C@H]3C(=O)OC[C@@H]32)OCO4)cc(OC)c1OC [Compound 3g, 4β-(E)-3-(4-hydroxy-3-nitrophenyl)-2-(3,4,5-trimethoxyphenyl)acrylamidopodophyllotoxin] | – | – | – | – | – | – | – | – | – | 190 | – | – | 180 | 190 | < 100 | 2700 | 2200 | 2200 | 2000
COc1ccc(/C=C(/C(=O)N[C@@H]2c3cc4c(cc3[C@@H](c3cc(OC)c(OC)c(OC)c3)[C@H]3C(=O)OC[C@@H]32)OCO4)c2cc(OC)c(OC)c(OC)c2)cc1[N+](=O)[O-] [Compound 3h, 4β-(E)-3-(4-methoxy-3-nitrophenyl)-2-(3,4,5-trimethoxyphenyl)acrylamidopodophyllotoxin] | – | – | – | – | – | – | – | – | – | 2300 | – | 140 to 143 | 2200 | 2600 | 2900 | – | 2500 | – | 2700
COc1cc(/C(=C\c2ccc([N+](=O)[O-])cc2)C(=O)N[C@@H]2c3cc4c(cc3[C@@H](c3cc(OC)c(OC)c(OC)c3)[C@H]3C(=O)OC[C@@H]32)OCO4)cc(OC)c1OC [Compound 3i, 4β-(E)-3-(4-nitrophenyl)-2-(3,4,5-trimethoxyphenyl)acrylamidopodophyllotoxin] | – | – | – | – | – | – | – | – | – | 2700 | – | 187 to 190 | 2200 | 2100 | 2400 | – | 2600 | – | 2100
COc1cc(/C(=C\c2cccc([N+](=O)[O-])c2)C(=O)N[C@@H]2c3cc4c(cc3[C@@H](c3cc(OC)c(OC)c(OC)c3)[C@H]3C(=O)OC[C@@H]32)OCO4)cc(OC)c1OC [Compound 3j, 4β-(E)-3-(3-nitrophenyl)-2-(3,4,5-trimethoxyphenyl)acrylamido podophyllotoxin] | – | – | – | – | – | – | – | – | – | 170 | 2400 | 181 to 184 | – | 2100 | < 100 | 2700 | 2500 | – | –
COc1cc(/C(=C\c2ccccc2[N+](=O)[O-])C(=O)N[C@@H]2c3cc4c(cc3[C@@H](c3cc(OC)c(OC)c(OC)c3)[C@H]3C(=O)OC[C@@H]32)OCO4)cc(OC)c1OC [Compound 3k, 4β-(E)-3-(2-nitrophenyl)-2-(3,4,5-trimethoxyphenyl)acrylamidopodophyllotoxin] | – | – | – | – | – | – | – | – | – | 2700 | 2500 | 197 to 200 | 2500 | – | – | – | 2300 | 2700 | –
COc1ccccc1/C(=C\c1ccc([N+](=O)[O-])cc1)C(=O)N[C@@H]1c2cc3c(cc2[C@@H](c2cc(OC)c(OC)c(OC)c2)[C@H]2C(=O)OC[C@@H]21)OCO3 [Compound 3l, 4β-(E)-2-(2-methoxyphenyl)-3-(4-nitrophenyl)acrylamidopodophyllotoxin] | – | – | – | – | – | – | – | – | – | 2000 | < 100 | 181 to 183 | 2100 | 2100 | 2300 | 2700 | 2300 | 2400 | –
COc1ccccc1/C(=C\c1ccccc1[N+](=O)[O-])C(=O)N[C@@H]1c2cc3c(cc2[C@@H](c2cc(OC)c(OC)c(OC)c2)[C@H]2C(=O)OC[C@@H]21)OCO3 [Compound 3m, 4β-(E)-2-(2-methoxyphenyl)-3-(2-nitrophenyl)acrylamidopodophyllotoxin] | – | – | – | – | – | – | – | – | – | 2100 | < 100 | 187 to 190 | 2200 | 2200 | 2300 | 2800 | 2200 | 2500 | –
COc1ccc(/C=C(/C(=O)N[C@@H]2c3cc4c(cc3[C@@H](c3cc(OC)c(OC)c(OC)c3)[C@H]3C(=O)OC[C@@H]32)OCO4)c2cc(OC)c(OC)c(OC)c2)cc1 [Compound 3n, 4β-(E)-3-(4-methoxyphenyl)-2-(3,4,5-trimethoxyphenyl)acrylamidopodophyllotoxin] | – | – | – | – | – | – | – | – | – | – | – | 128 to 130 | 2900 | 2200 | 2300 | 2900 | 2500 | – | 170
COc1cccc(/C=C(/C(=O)N[C@@H]2c3cc4c(cc3[C@@H](c3cc(OC)c(OC)c(OC)c3)[C@H]3C(=O)OC[C@@H]32)OCO4)c2cc(OC)c(OC)c(OC)c2)c1 [Compound 3o, 4β-(E)-3-(3-methoxyphenyl)-2-(3,4,5-trimethoxyphenyl)acrylamidopodophyllotoxin] | – | – | – | – | – | – | – | – | – | 180 | < 100 | 187 to 190 | 180 | 2100 | 2200 | 2700 | < 100 | 2100 | –
COc1cc(/C(=C\c2ccc(O)cc2)C(=O)N[C@@H]2c3cc4c(cc3[C@@H](c3cc(OC)c(OC)c(OC)c3)[C@H]3C(=O)OC[C@@H]32)OCO4)cc(OC)c1OC [Compound 3p, 4β-(E)-3-(4-hydroxyphenyl)-2-(3,4,5-trimethoxyphenyl)acrylamidopodophyllotoxin] | – | – | – | – | – | – | – | – | – | 2600 | 2300 | 137 to 140 | 2700 | 2700 | 2700 | – | – | 2600 | –
